According to patent US20050209278A1, “Piperidinyl- and piperazinyl-sulfonylmethyl hydroxamic acids and their use as protease inhibitors” (priority 2002, published 2005):
Like-named read-outs stand apart in the source and are kept apart here.

What was measured:
Type in all cases: biochemical
MMP-13 [1] = biological target: T1, MMP-13 (Homo sapiens, UniProt P45452); assay: In vitro MMP inhibition, Ki determination (fluorogenic substrate II); details: read-out: MMP-13 Ki
T1 construct: made in house; host or cells: baculovirus / insect cells
Experimental: (§1) Several hydroxamic acids and salts thereof were analyzed in in vitro assays to determine their ability to inhibit the MMP cleavage of peptide substrates. […] and IC50 constants were calculated from the assayed hydroxamic acid-MMP interactions.
(§2) Human recombinant MMP-1, MMP-2, MMP-9, MMP-13, and MMP-14 were used in this assay. All enzymes were prepared in Assignee's laboratories following usual laboratory procedures. Protocols for the preparation and use of these enzymes are available in the scientific literature. See, e.g., Enzyme Nomenclature (Academic Press, San Diego, Calif., 1992) (and the citations therein). See also, Freije et al., “Molecular cloning and expression of collagenase-3, a novel human matrix metalloproteinase produced by breast carcinomas,” J Biol. Chem., 269(24), 16766-16773 (1994).
The MMP-13 was obtained as a proenzyme from a full-length cDNA clone using baculovirus, as described by V. A. Luckow, “Insect Cell Expression Technology,” Protein Engineering: Principles and Practice, pp. 183-218 (edited by J. L. Cleland et al., Wiley-Liss, Inc., 1996). The expressed proenzyme was first purified over a heparin agarose column, and then over a chelating zinc chloride column. The proenzyme was then activated by APMA for use in the assay. […] See also, O'Reilly et al, Baculovirus Expression Vectors: A Laboratory Manual (W.H. Freeman and Co., New York, N.Y., 1992). See also, King et al., The Baculovirus Expression System: A Laboratory Guide (Chapman & Hall, London, England, 1992).
(§3) All MMPs were activated using 4-aminophenylmercuric acetate (“APMA”, Sigma Chemical, St. Louis, Mo.) or trypsin. MMP-9 also was activated using human recombinant MMP-3 (purified in Assignee's laboratory following standard cloning and purification techniques).
(§4) Two fluorogenic, methoxycoumarin-containing polypeptide substrates were used in the MMP inhibition assays: [drawing 427] Here, “Dpa” is 3-(2,4-dinitrophenyl)-L-2,3-diaminopropionyl group, and “MCA” is 7-methoxycoumarin-4-yl acetyl. Substrate (I) was purchased from Baychem (Redwood City, Calif.), and substrate II was prepared Assignee's laboratory. Substrate I was used in the IC50 determination assays, while substrate II was used in the Ki determination assays. In the absence of MMP inhibitory activity, either substrate is cleaved at the Gly-Leu peptide bond. This cleavage separates the highly fluorogenic peptide from the 2,4-dinitrophenyl quencher, thus resulting in increase of fluorescent intensity.
(§5) The stock solutions of the assayed hydroxamic acids (or salts thereof) were prepared in 1% dimethyl sulfoxide (DMSO). These stock solutions were diluted in Buffer A (100 mM Tris-HCl, 100 mM NaCl, 10 mM CaCl2, 0.05% polyoxyethylene 23 lauryl ether, pH 7.5) to obtain solutions with different hydroxamic acid concentrations, i.e., assay solutions with different concentrations of the assayed MMP inhibitory compound. The experiment controls contained the same amount of Buffer A/DMSO as the assayed sample, but contained no hydroxamic acid (or salt thereof).
(§6) The assays from which the Ki determinations were made were performed as follows. The assayed hydroxamic acid samples were incubated in separate wells of untreated white polystyrene plates (Nunc Nalgene International, Rochester, N.Y.), and analyzed on a Tecan SpectraFlour Plus plate reader. The excitation wavelength was 330 nm, and the emission wavelength—420 nm. All samples (assayed hydroxamic acids and controls) were incubated in separate plate wells at room temperature for 1 hr in the presence of 4 μM of MMP substrate (II). In the absence of MMP inhibitory activity, substrate II was cleaved at the Gly-Leu bond resulting in an increase of relative fluorescence. Inhibition was observed as a reduced rate of this increase in relative fluorescence. The various hydroxamic acids were analyzed using a single low enzyme concentration with a single substrate concentration fixed at or below the Km.

MMP-2 [2] = biological target: T2, MMP-2 (Homo sapiens, UniProt P08253); assay: as above; details: read-out: MMP-2 Ki
T2 construct: made in house; host or cells: MMP-2-transfected p2AHT2 cells
T2 sequence (P08253 110-660): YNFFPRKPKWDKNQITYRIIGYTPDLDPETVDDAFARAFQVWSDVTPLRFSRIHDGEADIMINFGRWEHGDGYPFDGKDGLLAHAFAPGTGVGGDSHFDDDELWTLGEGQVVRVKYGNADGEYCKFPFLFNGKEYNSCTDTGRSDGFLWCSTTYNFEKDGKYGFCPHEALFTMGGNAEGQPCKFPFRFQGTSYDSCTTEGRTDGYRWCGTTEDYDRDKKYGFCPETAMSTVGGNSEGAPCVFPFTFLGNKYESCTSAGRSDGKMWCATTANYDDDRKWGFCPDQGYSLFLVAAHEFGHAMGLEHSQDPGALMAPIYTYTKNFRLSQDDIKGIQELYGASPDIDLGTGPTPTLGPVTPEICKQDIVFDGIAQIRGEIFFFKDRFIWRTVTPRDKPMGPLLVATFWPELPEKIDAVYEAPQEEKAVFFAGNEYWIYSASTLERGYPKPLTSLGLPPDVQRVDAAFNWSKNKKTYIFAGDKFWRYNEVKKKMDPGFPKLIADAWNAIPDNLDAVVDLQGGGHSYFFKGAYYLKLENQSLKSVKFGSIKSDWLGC
Experimental: as §1, §2
The MMP-2 proenzyme was purified by gelatin Sepharose chromatography from MMP-2-transfected p2AHT2 cells provided by Dr. Gregory Goldberg of Washington University (St. Louis, Mo.).
as §3, §4, §5
as §6, with “Km. This protocol is a modification of method by Knight et al., FEBS Lett., 296(3), 263-266 (1992). Apparent inhibitory constants were determined by non-linear regression of reaction velocity as a function of inhibitor and enzyme concentration using Morrison's equation, as described by Kuzmic, Anal. Biochem. 286, 45-50 (2000). […] Since the substrate concentration was chosen to be at or below the Km, the apparent Ki's from this analysis were reported as Ki's without correction for the influence of substrate.” for “Km.”

MMP-14 = biological target: T3, MMP-14 (Homo sapiens, UniProt P50281); assay: MMP-14 inhibition (in vitro Ki)
T3 construct: The catalytic domain enzyme was expressed in E. coli inclusion bodies, solubilized in urea; made in house

MMP-13 [3] = biological target: T1, MMP-13; assay: MMP-13 inhibition (in vitro Ki); details: Table 8; read-out: MMP-13 Ki
MMP-1 = biological target: T4, MMP-1 (Homo sapiens, UniProt P03956); assay: MMP-1 inhibition (in vitro Ki)
T4 construct: made in house; host or cells: MMP-1-transfected HT-1080 cells (spent media)
T4 sequence (P03956 100-469): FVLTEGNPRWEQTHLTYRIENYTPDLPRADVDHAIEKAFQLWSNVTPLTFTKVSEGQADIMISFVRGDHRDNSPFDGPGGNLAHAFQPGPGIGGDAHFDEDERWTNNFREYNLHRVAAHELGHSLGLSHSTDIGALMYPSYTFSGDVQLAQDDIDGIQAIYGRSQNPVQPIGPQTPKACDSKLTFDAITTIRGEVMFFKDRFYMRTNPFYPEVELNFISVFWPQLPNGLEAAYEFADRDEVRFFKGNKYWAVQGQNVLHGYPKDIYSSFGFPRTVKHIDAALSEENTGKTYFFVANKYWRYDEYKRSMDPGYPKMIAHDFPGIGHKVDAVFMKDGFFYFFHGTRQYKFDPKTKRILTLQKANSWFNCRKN

MMP-9 = biological target: T5, MMP-9 (Homo sapiens, UniProt P14780); assay: MMP-9 inhibition (in vitro Ki)
T5 construct: made in house; host or cells: MMP-9-transfected HT1080 cells (spent media)

MMP-2 [4] = biological target: T2, MMP-2; assay: MMP-2 inhibition (in vitro Ki)

T5 sequence (P14780 107-707 limits assumed): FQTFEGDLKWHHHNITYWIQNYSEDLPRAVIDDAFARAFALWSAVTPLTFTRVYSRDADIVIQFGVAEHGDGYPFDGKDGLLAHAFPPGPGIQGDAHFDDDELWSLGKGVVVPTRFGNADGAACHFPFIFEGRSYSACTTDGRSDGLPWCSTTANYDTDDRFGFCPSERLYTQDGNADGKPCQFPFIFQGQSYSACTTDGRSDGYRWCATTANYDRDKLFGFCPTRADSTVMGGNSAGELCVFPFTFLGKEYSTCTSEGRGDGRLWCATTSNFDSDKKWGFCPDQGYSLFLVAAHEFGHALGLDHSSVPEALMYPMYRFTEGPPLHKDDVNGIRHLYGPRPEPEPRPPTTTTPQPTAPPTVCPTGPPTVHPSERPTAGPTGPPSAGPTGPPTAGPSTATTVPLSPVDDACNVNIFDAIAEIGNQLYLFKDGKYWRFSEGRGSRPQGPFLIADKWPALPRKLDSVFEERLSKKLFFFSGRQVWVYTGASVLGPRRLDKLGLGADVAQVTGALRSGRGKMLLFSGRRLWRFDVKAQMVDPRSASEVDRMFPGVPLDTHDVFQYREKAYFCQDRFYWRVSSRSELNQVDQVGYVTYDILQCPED

Row | SMILES | Ki (MMP-14; Table 8, read-out: MMP-14 Ki) | Ki (MMP-13 [3]) | Ki (MMP-1; Table 8, read-out: MMP-1 Ki) | Ki (MMP-9; Table 8, read-out: MMP-9 Ki) | Ki (MMP-2 [4]; Table 8, read-out: MMP-2 Ki) | also measured
1 | CCc1ccc(N2CCN(S(=O)(=O)C3(C(=O)NO)CCOCC3)CC2)nc1 [Example 137] |  |  |  |  |  | Ki (MMP-13 [1]; value not in parenthesis): 0.75 nM; Ki (MMP-2 [2]; value not in parenthesis): 0.37 nM
2 | Cc1cccc(-c2csc(N3CCN(S(=O)(=O)C4(C(=O)NO)CCOCC4)CC3)n2)c1 [Example 414] |  |  |  |  |  | Ki (MMP-13 [1]; value outside parentheses): 4190 nM; Ki (MMP-2 [2]; value outside parentheses): 2660 nM
3 | O=C(NO)C1(S(=O)(=O)N2CCC(CCCCCOCC(F)(F)F)CC2)CCOCC1 [Example A35, 4-{4-[5-(2,2,2-trifluoro-ethoxy)-pentyl]-piperidine-1-sulfonyl}-tetrahydro-pyran-4-carboxylic Acid Hydroxyamide] | 1710 nM | 0.28 nM | 5290 nM | 2.68 nM | 2.22 nM | 
4 | CCCCCCOC1CCN(S(=O)(=O)C2(C(=O)NO)CCOCC2)CC1 [Example A36, 4-(4-hexyloxy-piperidine-1-sulfonyl)-tetrahydro-pyran-4-carboxylic Acid Hydroxyamide] | 1940 nM | 5.92 nM | > 10000 nM | 0.95 nM | 3.51 nM | 
5 | CCCCCOC1CCN(S(=O)(=O)C2(C(=O)NO)CCOCC2)CC1 [Example A36A] | 816 nM | 9.36 nM | > 10000 nM | 2.65 nM | 6 nM | 
6 | CCCCCCCCOC1CCN(S(=O)(=O)C2(C(=O)NO)CCOCC2)CC1 [Example A36B] | 1080 nM | 0.63 nM | > 10000 nM | 1.34 nM | 1.87 nM | 
7 | CCCCC=CCCOC1CCN(S(=O)(=O)C2(C(=O)NO)CCOCC2)CC1 [Example A36C] | 1900 nM | 1.22 nM | > 10000 nM | 3.41 nM | 3.93 nM | 
8 | CC(C)CCCOC1CCN(S(=O)(=O)C2(C(=O)NO)CCOCC2)CC1 [Example A36D] | 4060 nM | 19.9 nM | > 10000 nM | 39.1 nM | 11.9 nM | 
9 | CC(C)(C)CCOC1CCN(S(=O)(=O)C2(C(=O)NO)CCOCC2)CC1 [Example A36E] | 4250 nM | 65.8 nM | > 10000 nM | 365 nM | 112 nM | 
10 | CC(C)CCCCCOC1CCN(S(=O)(=O)C2(C(=O)NO)CCOCC2)CC1 [Example A36F] | 1900 nM | 1.11 nM | > 10000 nM | 2.26 nM | 2.47 nM | 
11 | O=C(NO)C1(S(=O)(=O)N2CCC(OCCCc3ccccc3)CC2)CCOCC1 [Example A36G] | 2610 nM | 30.2 nM | > 10000 nM | 16.4 nM | 31.1 nM | 
12 | CCCCOCCOC1CCN(S(=O)(=O)C2(C(=O)NO)CCOCC2)CC1 [Example A36H] | > 10000 nM | 70.5 nM | > 10000 nM | 45.7 nM | 60.1 nM | 
13 | CCCCOCCCC1CCN(S(=O)(=O)C2(C(=O)NO)CCOCC2)CC1 [Example A36I] | 6370 nM | 7.7 nM | > 10000 nM | 2.57 nM | 9.08 nM | 
14 | O=C(NO)C1(S(=O)(=O)N2CCC(N3CCN(c4ccc(F)cc4)CC3)CC2)CCOCC1 [Example A197] |  |  |  |  |  | Ki (MMP-14; Table 9, read-out: MMP-14 Ki (IC-50)): > 10000 nM; Ki (MMP-1; Table 9, read-out: MMP-1 Ki (IC-50)): > 10000 nM; Ki (MMP-9; Table 9, read-out: MMP-9 Ki (IC-50)): 1620 nM; Ki (MMP-2 [4]; Table 9, read-out: MMP-2 Ki (IC-50)): 770 nM
